Test system: MV-4-11 cells
Assay: Gene expression microarray analysis (Affymetrix PrimeView) and GSEA
Assay type: cell-based, human
Set-up: RFU PODN (11730768_x_at) / Fold change /veh PODN (11730768_x_at) / RFU LINC00158 (11744669_a_at) / Fold change /veh LINC00158 (11744669_a_at) / RFU DUSP10 (11751237_a_at) / Fold change /veh DUSP10 (11751237_a_at) / RFU ID3 (11757404_x_at) / Fold change /veh ID3 (11757404_x_at) / RFU PLEKHG5 (11737974_s_at) / Fold change /veh PLEKHG5 (11737974_s_at) / RFU LRRC4B (11730491_at) / Fold change /veh LRRC4B (11730491_at) / RFU GIMAP4 (11747438_a_at) / Fold change /veh GIMAP4 (11747438_a_at) / RFU KRT8 (11758183_x_at) / Fold change /veh KRT8 (11758183_x_at) / RFU CNN1 (11734310_a_at) / Fold change /veh CNN1 (11734310_a_at) / RFU VPS37D (11726825_at) / Fold change /veh VPS37D (11726825_at) / RFU C10orf10 (11716522_x_at) / Fold change /veh C10orf10 (11716522_x_at) / RFU KIR2DL2 /// KIR2DL4 /// KIR2DL5A /// KIR2DL5B /// KIR2DS1 /// KIR2DS2 /// KIR2DS3 /// KIR2DS4 /// KIR3DL3 /// KIR3DL3 /// KIR3DS1 (11738374_at) / Fold change /veh KIR2DL2 /// KIR2DL4 /// KIR2DL5A /// KIR2DL5B /// KIR2DS1 /// KIR2DS2 /// KIR2DS3 /// KIR2DS4 /// KIR3DL3 /// KIR3DL3 /// KIR3DS1 (11738374_at) / RFU C1QL1 (11718748_at) / Fold change /veh C1QL1 (11718748_at) / RFU TMPRSS4 (11747572_a_at) / Fold change /veh TMPRSS4 (11747572_a_at) / RFU HAMP (11756126_x_at) / Fold change /veh HAMP (11756126_x_at) / RFU RNFT2 (11725882_a_at) / Fold change /veh RNFT2 (11725882_a_at) / RFU NR4A2 (11747474_a_at) / Fold change /veh NR4A2 (11747474_a_at) / RFU ABCC12 (11746883_a_at) / Fold change /veh ABCC12 (11746883_a_at) / RFU TMEM136 (11760407_x_at) / Fold change /veh TMEM136 (11760407_x_at) / RFU CLDN22 /// WWC2 (11732394_at) / Fold change /veh CLDN22 /// WWC2 (11732394_at) / RFU HLA-DPB1 (11760878_x_at) / Fold change /veh HLA-DPB1 (11760878_x_at) / RFU SPINT1 (11716480_a_at) / Fold change /veh SPINT1 (11716480_a_at) / RFU GAP43 (11754022_s_at) / Fold change /veh GAP43 (11754022_s_at) / RFU A4GNT (11735810_at) / Fold change /veh A4GNT (11735810_at) / RFU PRB3 (11715151_x_at) / Fold change /veh PRB3 (11715151_x_at) / RFU TUBB4B (11761932_at) / Fold change /veh TUBB4B (11761932_at) / RFU CAPN14 (11732068_a_at) / Fold change /veh CAPN14 (11732068_a_at) / RFU TMCC2 (11721928_a_at) / Fold change /veh TMCC2 (11721928_a_at) / RFU IRGQ (11745062_a_at) / Fold change /veh IRGQ (11745062_a_at) / RFU FAM174B (11720279_a_at) / Fold change /veh FAM174B (11720279_a_at) / RFU TMPRSS4 (11748680_a_at) / Fold change /veh TMPRSS4 (11748680_a_at) / RFU FAM212B (11763350_a_at) / Fold change /veh FAM212B (11763350_a_at) / RFU PLEKHG5 (11743358_a_at) / Fold change /veh PLEKHG5 (11743358_a_at) / RFU ZSCAN30 (11745921_a_at) / Fold change /veh ZSCAN30 (11745921_a_at) / RFU CMKLR1 (11741424_a_at) / Fold change /veh CMKLR1 (11741424_a_at) / RFU LOC101060620 /// MAPK8IP1 (11723275_at) / Fold change /veh LOC101060620 /// MAPK8IP1 (11723275_at) / RFU SPTSSB (11747773_x_at) / Fold change /veh SPTSSB (11747773_x_at) / RFU PRSS12 (11739890_at) / Fold change /veh PRSS12 (11739890_at) / RFU BIN1 (11741810_x_at) / Fold change /veh BIN1 (11741810_x_at) / RFU WNT11 (11732464_a_at) / Fold change /veh WNT11 (11732464_a_at) / RFU C10orf10 (11716521_a_at) / Fold change /veh C10orf10 (11716521_a_at) / RFU C5orf56 (11738089_at) / Fold change /veh C5orf56 (11738089_at) / RFU CYB561 (11721691_x_at) / Fold change /veh CYB561 (11721691_x_at) / RFU ANKRD19P (11752326_a_at) / Fold change /veh ANKRD19P (11752326_a_at) / RFU OR2T12 /// OR2T33 /// OR2T8 (11738714_s_at) / Fold change /veh OR2T12 /// OR2T33 /// OR2T8 (11738714_s_at) / RFU VCAN (11748164_a_at) / Fold change /veh VCAN (11748164_a_at) / RFU JSRP1 (11732532_at) / Fold change /veh JSRP1 (11732532_at) / RFU KRTAP10-11 (11738290_x_at) / Fold change /veh KRTAP10-11 (11738290_x_at) / RFU MYO3A (11730013_a_at) / Fold change /veh MYO3A (11730013_a_at) / RFU EBF3 (11725865_a_at) / Fold change /veh EBF3 (11725865_a_at) / RFU CAMK2N1 (11719241_x_at) / Fold change /veh CAMK2N1 (11719241_x_at) / RFU C5orf56 (11738088_a_at) / Fold change /veh C5orf56 (11738088_a_at) / RFU OLFML3 (11715873_a_at) / Fold change /veh OLFML3 (11715873_a_at) / RFU LOC100653217 /// NTM (11731650_a_at) / Fold change /veh LOC100653217 /// NTM (11731650_a_at) / RFU MAPK11 (11762145_a_at) / Fold change /veh MAPK11 (11762145_a_at) / RFU FIZ1 (11724087_x_at) / Fold change /veh FIZ1 (11724087_x_at) / RFU OASL (11726364_x_at) / Fold change /veh OASL (11726364_x_at) / RFU SOX15 (11748057_x_at) / Fold change /veh SOX15 (11748057_x_at) / RFU CD79A (11719716_a_at) / Fold change /veh CD79A (11719716_a_at) / RFU HIST1H1D (11736915_at) / Fold change /veh HIST1H1D (11736915_at) / RFU CASKIN2 (11723855_a_at) / Fold change /veh CASKIN2 (11723855_a_at) / RFU LOC730098 (11760151_x_at) / Fold change /veh LOC730098 (11760151_x_at) / RFU OR4N2 (11742367_at) / Fold change /veh OR4N2 (11742367_at) / RFU PRRT2 (11749266_a_at) / Fold change /veh PRRT2 (11749266_a_at) / RFU SNX32 (11753110_a_at) / Fold change /veh SNX32 (11753110_a_at) / RFU CDHR5 (11726645_a_at) / Fold change /veh CDHR5 (11726645_a_at) / RFU RCAN1 (11760418_a_at) / Fold change /veh RCAN1 (11760418_a_at) / RFU FAM167A (11723789_a_at) / Fold change /veh FAM167A (11723789_a_at) / RFU FAM26E (11764081_at) / Fold change /veh FAM26E (11764081_at) / RFU ISYNA1 (11749810_s_at) / Fold change /veh ISYNA1 (11749810_s_at) / RFU ACY1 (11761880_at) / Fold change /veh ACY1 (11761880_at) / RFU 11764098_at / Fold change /veh 11764098_at / RFU SAMD14 (11745864_x_at) / Fold change /veh SAMD14 (11745864_x_at) / RFU NPB (11741838_a_at) / Fold change /veh NPB (11741838_a_at) / RFU TMPRSS6 (11731388_a_at) / Fold change /veh TMPRSS6 (11731388_a_at) / RFU KRTAP10-2 (11738614_at) / Fold change /veh KRTAP10-2 (11738614_at) / RFU ARHGAP8 /// PRR5-ARHGAP8 (11727945_x_at) / Fold change /veh ARHGAP8 /// PRR5-ARHGAP8 (11727945_x_at) / RFU KRTAP5-7 /// NADSYN1 (11734609_at) / Fold change /veh KRTAP5-7 /// NADSYN1 (11734609_at) / RFU RASL12 (11751679_a_at) / Fold change /veh RASL12 (11751679_a_at) / RFU CDKN2B (11736163_a_at) / Fold change /veh CDKN2B (11736163_a_at) / RFU PRF1 (11729649_at) / Fold change /veh PRF1 (11729649_at) / RFU, ZNF638 /// ZNF638-IT1 / Fold change vs veh, ZNF638 /// ZNF638-IT1 / RFU, PANK3 / Fold change vs veh, PANK3 / RFU, SH3YL1 / Fold change vs veh, SH3YL1 / RFU, ZEB2 / Fold change vs veh, ZEB2 / RFU, NRIP1 / Fold change vs veh, NRIP1 / RFU, PTTG1IP / Fold change vs veh, PTTG1IP / RFU, CAPN2 / Fold change vs veh, CAPN2 / RFU, MED14 / Fold change vs veh, MED14 / RFU, SNORA58 / Fold change vs veh, SNORA58 / RFU, C1orf63 / Fold change vs veh, C1orf63 / RFU, LRRFIP1 / Fold change vs veh, LRRFIP1 / RFU, NDUFAF7 / Fold change vs veh, NDUFAF7 / RFU, SLC12A2 / Fold change vs veh, SLC12A2 / RFU, IBTK / Fold change vs veh, IBTK / RFU, ESF1 / Fold change vs veh, ESF1 / Fold change vs veh, TMEM50B / RFU, TAOK1 / Fold change vs veh, TAOK1 / RFU, ACBD3 / Fold change vs veh, ACBD3 / RFU, TMA16 / Fold change vs veh, TMA16 / RFU, RWDD3 / Fold change vs veh, RWDD3 / RFU, BCAT1 / Fold change vs veh, BCAT1 / RFU, EDEM3 / Fold change vs veh, EDEM3 / RFU, TMEM33 / Fold change vs veh, TMEM33 / RFU, WDR75 / Fold change vs veh, WDR75 / RFU, AHCTF1 / Fold change vs veh, AHCTF1 / RFU, TFRC / Fold change vs veh, TFRC / RFU, ZDHHC17 / Fold change vs veh, ZDHHC17 / RFU, NOM1 / Fold change vs veh, NOM1 / RFU, ARL8B / Fold change vs veh, ARL8B / RFU, ZBTB11 / Fold change vs veh, ZBTB11 / RFU, TAMM41 / Fold change vs veh, TAMM41 / RFU, KIAA1704 /// LOC100996395 / Fold change vs veh, KIAA1704 /// LOC100996395 / RFU, ING1 / Fold change vs veh, ING1 / RFU, TRMT61B / Fold change vs veh, TRMT61B / RFU, FUBP3 / Fold change vs veh, FUBP3 / RFU, TP53 / Fold change vs veh, TP53 / RFU, TNKS2 / Fold change vs veh, TNKS2 / RFU, ZFP14 / Fold change vs veh, ZFP14 / RFU, ACTR2 / Fold change vs veh, ACTR2 / RFU, PPP3R1 / Fold change vs veh, PPP3R1 / RFU, PIK3R1 / Fold change vs veh, PIK3R1 / RFU, HNRNPA1 / Fold change vs veh, HNRNPA1 / RFU, RNF170 / Fold change vs veh, RNF170 / RFU, ZNF28 / Fold change vs veh, ZNF28 / RFU, RNGTT / Fold change vs veh, RNGTT / RFU, OGT / Fold change vs veh, OGT / RFU, BRD1 / Fold change vs veh, BRD1 / RFU, MARS / Fold change vs veh, MARS / RFU, ZNF655 / Fold change vs veh, ZNF655 / RFU, FAHD1 / Fold change vs veh, FAHD1 / RFU, BDP1 / Fold change vs veh, BDP1 / RFU, LRRCC1 / Fold change vs veh, LRRCC1 / RFU, ARID1A / Fold change vs veh, ARID1A / RFU, ZNF146 / Fold change vs veh, ZNF146 / RFU, ZNF330 / Fold change vs veh, ZNF330 / RFU, GPN3 / Fold change vs veh, GPN3 / RFU, C9orf123 / Fold change vs veh, C9orf123 / RFU, N4BP2L2 / Fold change vs veh, N4BP2L2 / RFU, ARFIP1 / Fold change vs veh, ARFIP1 / RFU, FAM179B / Fold change vs veh, FAM179B / RFU, BCL10 / Fold change vs veh, BCL10 / RFU, UHRF1BP1L / Fold change vs veh, UHRF1BP1L / RFU, BET1 / Fold change vs veh, BET1 / RFU, CNOT2 / Fold change vs veh, CNOT2 / RFU, ZNF268 / Fold change vs veh, ZNF268 / Fold change vs veh, ZNF507 / RFU, DGCR2 / Fold change vs veh, DGCR2 / RFU, WDSUB1 / Fold change vs veh, WDSUB1 / Fold change vs veh, HSP90B1 /// MIR3652 / RFU, ADSS / Fold change vs veh, ADSS / RFU, GK / Fold change vs veh, GK / RFU, ZNF148 / Fold change vs veh, ZNF148 / RFU, TAF9 / Fold change vs veh, TAF9 / RFU, SLC1A5 / Fold change vs veh, SLC1A5 / RFU, SLMO2 / Fold change vs veh, SLMO2 / RFU, ABCC4 / Fold change vs veh, ABCC4 / RFU, LOC101060439 /// RAP1B / Fold change vs veh, LOC101060439 /// RAP1B / RFU, RFX7 / Fold change vs veh, RFX7 / RFU, GTPBP10 / Fold change vs veh, GTPBP10 / RFU, CNEP1R1 / Fold change vs veh, CNEP1R1 / RFU, BIVM-ERCC5 /// ERCC5 / Fold change vs veh, BIVM-ERCC5 /// ERCC5 / RFU, ILF3 / Fold change vs veh, ILF3 / RFU 11762660_at / Fold change /veh 11762660_at / RFU VCAN (11757783_s_at) / Fold change /veh VCAN (11757783_s_at) / RFU DDX43 (11728927_at) / Fold change /veh DDX43 (11728927_at) / RFU KRT8 (11758188_x_at) / Fold change /veh KRT8 (11758188_x_at) / RFU NKD1 (11759106_at) / Fold change /veh NKD1 (11759106_at) / RFU SRD5A1 (11742802_a_at) / Fold change /veh SRD5A1 (11742802_a_at) / RFU TPSAB1 /// TPSB2 (11721975_s_at) / Fold change /veh TPSAB1 /// TPSB2 (11721975_s_at) / RFU GSTM3 (11746129_a_at) / Fold change /veh GSTM3 (11746129_a_at) / RFU IL23R (11737362_x_at) / Fold change /veh IL23R (11737362_x_at) / RFU TMEM51 (11727254_a_at) / Fold change /veh TMEM51 (11727254_a_at) / RFU PIWIL2 (11732686_x_at) / Fold change /veh PIWIL2 (11732686_x_at) / RFU ORM1 (11744905_x_at) / Fold change /veh ORM1 (11744905_x_at) / RFU CCDC152 (11743942_at) / Fold change /veh CCDC152 (11743942_at) / RFU ECM1 (11717891_a_at) / Fold change /veh ECM1 (11717891_a_at) / RFU IL23R (11748794_a_at) / Fold change /veh IL23R (11748794_a_at) / RFU TNFAIP8L3 (11732012_x_at) / Fold change /veh TNFAIP8L3 (11732012_x_at) / RFU MBOAT4 (11741988_at) / Fold change /veh MBOAT4 (11741988_at) / RFU 11764193_at / Fold change /veh 11764193_at / RFU TMEM53 (11763286_at) / Fold change /veh TMEM53 (11763286_at) / RFU MAGEB2 (11727129_at) / Fold change /veh MAGEB2 (11727129_at) / RFU TMEM200A (11744735_a_at) / Fold change /veh TMEM200A (11744735_a_at) / RFU CCDC152 (11751479_a_at) / Fold change /veh CCDC152 (11751479_a_at) / RFU FAM211A (11726209_a_at) / Fold change /veh FAM211A (11726209_a_at) / RFU RGS16 (11746705_a_at) / Fold change /veh RGS16 (11746705_a_at) / RFU VCAN (11755009_s_at) / Fold change /veh VCAN (11755009_s_at) / RFU RHOB (11743442_s_at) / Fold change /veh RHOB (11743442_s_at) / RFU RGS16 (11720943_a_at) / Fold change /veh RGS16 (11720943_a_at) / RFU RGS16 (11720944_at) / Fold change /veh RGS16 (11720944_at) / RFU, VPS4B / Fold change vs veh, VPS4B / RFU, CREB1 / Fold change vs veh, CREB1 / RFU, DNAJC13 / Fold change vs veh, DNAJC13 / RFU, GNAQ / Fold change vs veh, GNAQ / RFU, CDK5R1 / Fold change vs veh, CDK5R1 / RFU, ZRANB3 / Fold change vs veh, ZRANB3 / RFU, CUL4A / Fold change vs veh, CUL4A / RFU, CCNY / Fold change vs veh, CCNY / RFU, UFL1 / Fold change vs veh, UFL1 / RFU, COG3 / Fold change vs veh, COG3 / RFU, DIAPH2 / Fold change vs veh, DIAPH2 / RFU, SKA2 / Fold change vs veh, SKA2 / RFU, AFF3 / Fold change vs veh, AFF3 / RFU, LMF1 / Fold change vs veh, LMF1 / RFU, IPO11 / Fold change vs veh, IPO11 / RFU, DFFB / Fold change vs veh, DFFB / RFU, FOXP1 / Fold change vs veh, FOXP1 / RFU, CARD8 / Fold change vs veh, CARD8 / RFU, STRN3 / Fold change vs veh, STRN3 / RFU, ADK / Fold change vs veh, ADK / RFU, RASSF2 / Fold change vs veh, RASSF2 / RFU, WIPF1 / Fold change vs veh, WIPF1 / RFU, LARP1B / Fold change vs veh, LARP1B / RFU, RASA1 / Fold change vs veh, RASA1 / RFU, RB1 / Fold change vs veh, RB1 / RFU, PPFIA1 / Fold change vs veh, PPFIA1 / RFU, MAT2A / Fold change vs veh, MAT2A / RFU, CCT5 / Fold change vs veh, CCT5 / RFU, WDR92 / Fold change vs veh, WDR92 / RFU, CUX1 / Fold change vs veh, CUX1 / RFU, TTC7A / Fold change vs veh, TTC7A / RFU, TMEM135 / Fold change vs veh, TMEM135 / RFU, DEPTOR / Fold change vs veh, DEPTOR / RFU, CPM / Fold change vs veh, CPM / RFU, DNAJB6 / Fold change vs veh, DNAJB6 / RFU, CACNA2D3 / Fold change vs veh, CACNA2D3 / RFU, DTX4 / Fold change vs veh, DTX4 / RFU, TFCP2 / Fold change vs veh, TFCP2 / RFU, GMCL1 /// GMCL1P1 / Fold change vs veh, GMCL1 /// GMCL1P1 / RFU, AEBP2 / Fold change vs veh, AEBP2 / RFU, SNHG1 /// SNORD22 /// SNORD25 /// SNORD26 /// SNORD27 /// SNORD28 /// SNORD29 /// SNORD31 / Fold change vs veh, SNHG1 /// SNORD22 /// SNORD25 /// SNORD26 /// SNORD27 /// SNORD28 /// SNORD29 /// SNORD31 / Fold change (Aza/veh), C12orf56 (ProbeSet 11735607_a_at) / Fold change (ACY-1035/veh), C12orf56 (ProbeSet 11735607_a_at) / Fold change (Aza/veh), FGFR1OP (ProbeSet 11751329_s_at) / Fold change (ACY-1035/veh), FGFR1OP (ProbeSet 11751329_s_at) / Fold change (Aza/veh), VPS36 (ProbeSet 11739960_a_at) / Fold change (ACY-1035/veh), VPS36 (ProbeSet 11739960_a_at) / RFU SYPL1 (11715823_x_at) / Fold change /veh SYPL1 (11715823_x_at) / RFU IGFBP7 (11715501_s_at) / Fold change /veh IGFBP7 (11715501_s_at) / RFU REEP3 (11722064_at) / Fold change /veh REEP3 (11722064_at) / RFU IGLL1 (11728026_x_at) / Fold change /veh IGLL1 (11728026_x_at): dose or concentration left out as unconfirmed
Details: ProbeSet 11727827_x_at; LIST B

Structure (SMILES): Nc1ccc(-c2cccs2)cc1NC(=O)c1ccc2c(c1)cc(C1CC1)n2CCN1CCOCC1 [ACY-1035]
- RFU, NDUFAF7: 59.45 RFU

Reference: article PMC5218480 (PLoS ONE, 2017)
